# Test results taken from patent US20200253211A1, “PHOTODYNAMIC INHIBITION OF MICROBIAL PATHOGENS IN PLANTS” (SUNCOR ENERGY INC, priority 2017, published 2020).
# Where two headings read alike, the source gives them in different places.
# Legend:
# Assay type in all cases: cell-based
# [1] = tested on: Alternaria solani mycelia; experiment: Photodynamic inhibition of Alternaria solani mycelia, percentage of dead samples after 7 days on agar; settings: Table 5
# Experimental: (§1) In the experiments, Alternaria solani mycelia were grown in liquid medium for 24 hours. Small spheres of the mycelia (average diameter 2 mm) were incubated for 100 minutes with 100 μM of Mg-Chlorophyllin with 0 to 5 mM of Disodium-EDTA. Samples were illuminated with 395 nm (fluence 106.6 J cm^−2) for 120 mins and the radial growth of mycelial patches after 7 days on agar medium was measured. A sample was considered dead, if there was no growth observable after 7 days on agar plates.
# as §1, with “Chlorin E6” for “100 μM of Mg-Chlorophyllin”, “or without” for “0 to”, “disodium-EDTA.” for “Disodium-EDTA.”
# The protocol for the PDI of A. solani was as follows (for Experiment 2 and 5): • Grow A. solani on tomato-agar for some days. • Transfer parts of the growing mycelium form the edge of the A. solani (no conidia) to liquid tomato medium. • Incubate overnight at 26° C. under constant agitation. • Transfer the grown mycelia (spheres of mycelia, approximately 2 mm in diameter) to 24 well plates. • Add 500 microlitres of the PS to the well (PBS for the Co and light only controls). • Incubate under agitation for 100 minutes. • Illuminate under agitation for 120 minutes. • Transfer the treated mycelia to tomato-agar plates and incubate for one week at room temperature. • Evaluate by counting of dead samples.
# Sclerotinia homoeocarpa [2] = experiment: Radial growth of dollar spot fungus after treatment of plugs in PBS (24 well plates), dark vs light
# Experimental: In this example, control of dollar spot fungus (Sclerotinia homoeocarpa) with chlorins combined with a chelating agent was assessed. Treatments were prepared in Phosphate Buffered Saline (PBS) in 24 well plates (in duplicates for light vs. dark incubation) at desired concentrations. Then, a 5 mm diameter plug of a Sclerotinia homoeocarpa isolate (3 isolates total tested) was inoculated into the PBS and incubated at 21° C. in the dark for 2 hours. After 2 hours, one of the 24 well plates (with isolates in triplicate) is left in the dark and one 24 well plate is placed under illumination for 1 hour (all at 21° C.). Following illumination, fungal plugs are removed from PBS, blotted dry on sterile filter paper and transferred to non-amended Potato Dextrose Agar (PDA). Radial growth of the fungus is monitored daily until the growth of S. homoeocarpa reaches the edge of the Petri-dish. Illumination is provided by LED lights emitting about 1000 μmol/m^2/s photosynthetically active radiation (PAR). In this example, control of dollar spot fungus (Sclerotinia homoeocarpa) with Zinc Protoporphyrin IX (Zn-PPIX) combined with EDTA was assessed. Treatments were prepared in Phosphate Buffered Saline (PBS) in 24 well plates (in duplicates for light vs. dark incubation) at desired concentrations. Then, a 5 mm diameter plug of a Sclerotinia homoeocarpa isolate (3 isolates total tested) was inoculated into the PBS and incubated at 21° C. in the dark for 2 hours. After 2 hours, one of the 24 well plates (with isolates in triplicate) is left in the dark and one 24 well plate is placed under illumination for 1 hour (all at 21° C.). Following illumination, fungal plugs are removed from PBS, blotted dry on sterile filter paper and transferred to non-amended Potato Dextrose Agar (PDA). Radial growth of the fungus is monitored daily until the growth of S. homoeocarpa reaches the edge of the Petri-dish. Illumination is provided by LED lights emitting about 1000 μmol/m^2/s photosynthetically active radiation (PAR). In this example, control of dollar spot fungus (Sclerotinia homoeocarpa) with bacteriochlorin combined with EDTA was assessed. Treatments were prepared in Phosphate Buffered Saline (PBS) in 24 well plates (in duplicates for light vs. dark incubation) at desired concentrations. Then, a 5 mm diameter plug of a Sclerotinia homoeocarpa isolate (3 isolates total tested) was inoculated into the PBS and incubated at 21° C. in the dark for 2 hours. After 2 hours, one of the 24 well plates (with isolates in triplicate) is left in the dark and one 24 well plate is placed under illumination for 1 hour (all at 21° C.). Following illumination, fungal plugs are removed from PBS, blotted dry on sterile filter paper and transferred to non-amended Potato Dextrose Agar (PDA). Radial growth of the fungus is monitored daily until the growth of S. homoeocarpa reaches the edge of the Petri-dish. Illumination is provided by LED lights emitting about 1000 μmol/m^2/s photosynthetically active radiation (PAR). In this example, control of dollar spot fungus (Sclerotinia homoeocarpa) with Aluminum chlorin e6 combined with EDTA was assessed. Treatments were prepared in Phosphate Buffered Saline (PBS) in 24 well plates (in duplicates for light vs. dark incubation) at desired concentrations. Then, a 5 mm diameter plug of a Sclerotinia homoeocarpa isolate (3 isolates total tested) was inoculated into the PBS and incubated at 21° C. in the dark for 2 hours. After 2 hours, one of the 24 well plates (with isolates in triplicate) is left in the dark and one 24 well plate is placed under illumination for 1 hour (all at 21° C.). Following illumination, fungal plugs are removed from PBS, blotted dry on sterile filter paper and transferred to non-amended Potato Dextrose Agar (PDA). Radial growth of the fungus is monitored daily until the growth of S. homoeocarpa reaches the edge of the Petri-dish. Illumination is provided by LED lights emitting about 1000 μmol/m^2/s photosynthetically active radiation (PAR). […]
# Sclerotinia homoeocarpa [3] = experiment: Radial growth of dollar spot fungus on amended Potato Dextrose Agar, dark vs light; settings: for inhibition at 500 µM / inhibition at 1000 µM: Clarireedia homoeocarpa, read-out: % Inhibition
# E. Coli K-12 = experiment: E. Coli assay under LED lamps, colony count; settings: Table 13; light; 1 mM Curcumin in 0.25% Tween 80 solution
# Experimental: Regarding the E. Coli assay tests in the above examples, the following procedure was used: • 1. E. Coli K-12 inoculated in 5 mL TSB and placed in a shaking incubator overnight. • 2. Dilute culture in 500 mL PBS (˜10̂8 CFU/mL) and placed in shaking incubator for 30 minutes at […]. • 3.15 mL samples created using 12 mL culture and a mixture of PBS buffer and sample compounds. • 4. Placed under LED lamps for 2 hours (40 W/m^2). • 5. Samples diluted to 10^−4 and culture controls diluted to 10^−5 for plating through series dilutions. • 6. 0.1 mL plated of each sample in triplicates on TSA base (10^−3 and 10^−4 for samples. 10^−4 and 10^−5 for controls). • 7. Incubated overnight at 37° C. • 8. Colonies counted next morning and recorded.
# Botrytis cinerea mycelia = experiment: Photodynamic inhibition of Botrytis cinerea mycelia, percentage of dead samples after 7 days on agar; settings: Table 4; EDTA-Ca 5 mM alone; with light
# Experimental: as §1, with “Botrytis cinerea” for “Alternaria solani”, “48” for “24”, “with” for “with 100 μM of”, “or without” for “0 to”, “mM” for “mM of”, “minutes” for “mins”
# as §1, with “Botrytis cinerea” for “Alternaria solani”, “48” for “24”, “with” for “with 100 μM of”, “or without” for “0 to”, “EDTA (calcium or disodium).” for “of Disodium-EDTA.”, “min” for “mins”
# as §1, with “Botrytis cinerea” for “Alternaria solani”, “48” for “24”, “with” for “with 100 μM of”, “or without Baypure DS100” for “0 to 5 mM of Disodium-EDTA.”, “min” for “mins”
# The protocol for the PDI of B. cinerea was as follows (for experiments 3 and 4 described above): • Grow B. cinerea on malt-peptone-agar for some days. • Transfer spores of B. cinerea to liquid malt-peptone medium. • Incubate for 2-3 days at 26° C. under constant agitation. • Transfer the grown mycelia (spheres of mycelia, approximately 2 mm diameter) to 24 well plates. • Add 500 μl of the PS to the well. • Incubate under agitation for 100 minutes in the dark. • Illuminate under agitation for 120 minutes. • Transfer the treated mycelia to malt-peptone-agar plates and incubate for one week at room temperature. • Evaluate by counting of dead samples.
# [4] = Table 9A, dark, Curcumin 500 μM in 0.25% Tween 80
# [5] = Table 9A, dark, Curcumin 1000 μM in 0.25% Tween 80
# [6] = Table 9B, light, Curcumin rate 500 μM in 0.25% Tween 80
# [7] = Table 9B, light, Curcumin rate 1000 μM in 0.25% Tween 80
# [8] = Table 9A, dark, Ca-EDTA 100 μM, no curcumin
# [9] = Table 9B, light, Ca-EDTA 100 μm, no curcumin
compound,measurement,setting,value
C=Cc1c(C)c2cc3nc(c(CC(=O)O)c4[nH]c(cc5nc(cc1[nH]2)C(C)=C5CC)c(C)c4C(=O)O)[C@@H](CCC(=O)O)[C@@H]3C [Chlorin E6],dead %,"[1]; light, 1 μM Chlorin E6",0.0%
same,dead %,"[1]; light, 10 μM Chlorin E6",8.3%
same,dead %,"[1]; light, 100 μM Chlorin E6",0%
same,dead %,"[1]; no light, 100 μM Chlorin E6",0.0%
same,% Inhibition,"Sclerotinia homoeocarpa [2]; Table 18A, dark, rate 10 μM",−1.49%
same,Mean Radial Growth,"Sclerotinia homoeocarpa [2]; Table 18A, dark, rate 10 μM",11.33 mm
same,% Inhibition,"Sclerotinia homoeocarpa [2]; Table 18A, dark, rate 100 μM",3.48%
same,Mean Radial Growth,"Sclerotinia homoeocarpa [2]; Table 18A, dark, rate 100 μM",10.78 mm
same,% Inhibition,"Sclerotinia homoeocarpa [2]; Table 18B, light, rate 10 μM",24.12%
same,Mean Radial Growth,"Sclerotinia homoeocarpa [2]; Table 18B, light, rate 10 μM",8.39 mm
same,% Inhibition,"Sclerotinia homoeocarpa [2]; Table 18B, light, rate 100 μM",11.06%
same,Mean Radial Growth,"Sclerotinia homoeocarpa [2]; Table 18B, light, rate 100 μM",9.83 mm
COc1cc(/C=C/C(=O)CC(=O)/C=C/c2ccc(O)c(OC)c2)ccc1O [Curcumin],inhibition at 500 µM,Sclerotinia homoeocarpa [3]; [4],11.4%
same,inhibition at 1000 µM,Sclerotinia homoeocarpa [3]; [5],33%
same,inhibition at 500 µM,Sclerotinia homoeocarpa [3]; [6],8.1%
same,inhibition at 1000 µM,Sclerotinia homoeocarpa [3]; [7],28.9%
same,Mean Radial Growth,Sclerotinia homoeocarpa [3]; [4],13.1 mm
same,Mean Radial Growth,Sclerotinia homoeocarpa [3]; [5],9.9 mm
same,Mean Radial Growth,Sclerotinia homoeocarpa [3]; [6],12.4 mm
same,Mean Radial Growth,Sclerotinia homoeocarpa [3]; [7],9.6 mm
same,% Inactivation,E. Coli K-12,86.0%
same,CFU/mL,E. Coli K-12,1.24E+06 CFU/mL
same,LogCFU/mL,E. Coli K-12,6.09 LogCFU/mL
"O=C([O-])CN(CCN(CC(=O)[O-])CC(=O)[O-])CC(=O)[O-].[Ca+2].[Na+].[Na+] [EDTA-Ca, calcium disodium EDTA]",dead %,Botrytis cinerea mycelia,0%
same,% Inhibition,Sclerotinia homoeocarpa [3]; [8],80.8%
same,Mean Radial Growth,Sclerotinia homoeocarpa [3]; [8],2.8 mm
same,% Inhibition,Sclerotinia homoeocarpa [3]; [9],76.5%
same,Mean Radial Growth,Sclerotinia homoeocarpa [3]; [9],3.2 mm
